Measurements as given in US20060069132A1, “Azolecarboxamide herbicides” (priority 2004, published 2006).

Experiments:
barnyardgrass [1] = experiment: Test B pre-/postemergence herbicide test; assay type: in vivo, Echinochloa crus-galli; settings: for Plant response rating, Barnyardgrass: preemergence; for Barnyardgrass plant response rating: postemergence, visual rating, scale 0 (no effect) to 100 (complete control)
Outline: (§1)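 Flooded paddy rice and barnyardgrass were treated at the 2-leaf stage; upland plantings received compound either on sown seed or on 1- to 4-leaf seedlings. All were kept 13–15 days in a greenhouse and scored visually, 0–100, relative to untreated plants.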

Surinam grass = experiment: Test B pre-/postemergence herbicide test; assay type: in vivo, Urochloa decumbens; settings: for Plant response rating, Surinam Grass: preemergence; for Surinam Grass plant response rating: postemergence, visual rating, scale 0 (no effect) to 100 (complete control)
Outline: (§2)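 Evaluation is visual, comparing treated with control plants on a scale where 0 means no effect and 100 means full control. Treatments were preemergence, or postemergence on seedlings 2–18 cm tall, and held 13–15 days in the greenhouse.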

cocklebur = experiment: Test B pre-/postemergence herbicide test; assay type: in vivo, Xanthium strumarium; settings: for Plant response rating, Cocklebur: preemergence; for Cocklebur plant response rating: postemergence, visual rating, scale 0 (no effect) to 100 (complete control)
Outline: as §1

corn = experiment: Test B pre-/postemergence herbicide test; assay type: in vivo, Zea mays; settings: for Plant response rating, Corn: preemergence; for Corn plant response rating: postemergence, visual rating, scale 0 (no effect) to 100 (complete control)
Outline: as §2

large crabgrass = experiment: Test B pre-/postemergence herbicide test; assay type: in vivo, Digitaria sanguinalis; settings: for Plant response rating, Crabgrass, Large: preemergence; for Crabgrass, Large plant response rating: postemergence, visual rating, scale 0 (no effect) to 100 (complete control)
Outline: as §2

giant foxtail = experiment: Test B pre-/postemergence herbicide test; assay type: in vivo, Setaria faberi; settings: for Plant response rating, Foxtail, Giant: preemergence; for Foxtail, Giant plant response rating: postemergence, visual rating, scale 0 (no effect) to 100 (complete control)
Outline: as §2

lambsquarters = experiment: Test B pre-/postemergence herbicide test; assay type: in vivo, Chenopodium album; settings: for Plant response rating, Lambsquarters: preemergence; for Lambsquarters plant response rating: postemergence, visual rating, scale 0 (no effect) to 100 (complete control)
Outline: as §2

morningglory = experiment: Test B pre-/postemergence herbicide test; assay type: in vivo, Ipomoea coccinea; settings: for Plant response rating, Morningglory: preemergence; for Morningglory plant response rating: postemergence, visual rating, scale 0 (no effect) to 100 (complete control)
Outline: as §1

pigweed = experiment: Test B pre-/postemergence herbicide test; assay type: in vivo, Amaranthus retroflexus; settings: for Plant response rating, Pigweed: preemergence; for Pigweed plant response rating: postemergence, visual rating, scale 0 (no effect) to 100 (complete control)
Outline: as §2

rice [2] = experiment: Test B pre-/postemergence herbicide test; assay type: in vivo, Oryza sativa; settings: 500 g ai/ha; visual rating 0-100, 0 no effect, 100 complete control; preemergence
Outline: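 Plants compared with untreated controls 13–15 days post-treatment and given a visual 0–100 injury score. Applications: preemergence to seeds; postemergence at 1- to 4-leaf (2–18 cm); paddy species flooded, 2-leaf stage. Vehicle non-phytotoxic, surfactant included.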

velvetleaf = experiment: Test B pre-/postemergence herbicide test; assay type: in vivo, Abutilon theophrasti; settings: for Plant response rating, Velvetleaf: preemergence; for Velvetleaf plant response rating: postemergence, visual rating, scale 0 (no effect) to 100 (complete control)
Outline: as §2

blackgrass = experiment: Test B postemergence herbicide test; assay type: in vivo, Alopecurus myosuroides; settings: postemergence, 500 g ai/ha; visual rating, scale 0 (no effect) to 100 (complete control)
Outline: (§3)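 After treating 2-leaf paddy plants or 2–18 cm postemergence plants (1 to 4 leaves) with formulated chemical, researchers kept them in a greenhouse for 13–15 days. Effects were judged visually versus controls: 0 indicates none, 100 total control.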

wheat = experiment: Test B postemergence herbicide test; assay type: in vivo, Triticum aestivum; parameters: key to Wheat plant response rating: 0 = no effect, 100 = complete control; settings: postemergence, 500 g ai/ha; visual rating, scale 0 (no effect) to 100 (complete control)
Outline: (§4)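 Treated at 2-leaf (paddy) or 1–4-leaf, 2–18 cm (postemergence); greenhouse 13–15 d; visual score vs control, 0 none to 100 complete control; dash = not tested.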

wild oat = experiment: Test B postemergence herbicide test; assay type: in vivo, Avena fatua; settings: postemergence, visual rating, scale 0 (no effect) to 100 (complete control)
Outline: as §4

rice [3] = experiment: Test B flooded paddy test; assay type: in vivo, Oryza sativa; settings: 1000 g ai/ha, visual rating, scale 0 to 100 (0 no effect, 100 complete control), 13 to 15 days
Outline: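 Each value is a visual 0–100 response rating taken against controls 13 to 15 days after treatment in the greenhouse. Plants received formulated chemical postemergence at the 1- to 4-leaf stage or, in flooded paddy, at the 2-leaf stage.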

[4] = system: small flower umbrella sedge; experiment: Test B flooded paddy test; assay type: in vivo, Cyperus difformis; settings: 1000 g ai/ha, visual rating, scale 0 to 100 (0 no effect, 100 complete control), 13 to 15 days
Outline: as §3

ducksalad [5] = experiment: Test B flooded paddy test; assay type: in vivo, Heteranthera limosa; settings: 1000 g ai/ha, visual rating, scale 0 to 100 (0 no effect, 100 complete control), 13 to 15 days
Outline: as §3

barnyardgrass [6] = experiment: Test B flooded paddy test; assay type: in vivo, Echinochloa crus-galli; settings: 1000 g ai/ha, visual rating, scale 0 to 100 (0 no effect, 100 complete control), 13 to 15 days
Outline: as §3

rice [7] = experiment: Test C flooded paddy test; assay type: in vivo, Oryza sativa
Outline: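 Postemergence sprays applied to plants 2 to 18 cm tall (1- to 4-leaf stage); paddy species grown to 2-leaf stage under flooding. After 12 to 14 days in greenhouse, visual rating versus untreated controls on 0–100 scale (0 no effect, 100 complete control).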

[8] = system: smallflower umbrella sedge; experiment: Test C flooded paddy test; assay type: in vivo, Cyperus difformis
ducksalad [9] = experiment: Test C flooded paddy test; assay type: in vivo, Heteranthera limosa
barnyardgrass [10] = experiment: Test C flooded paddy test; assay type: in vivo, Echinochloa crus-galli
Outline: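 After a postemergence application at 1 to 4 leaves (plants 2–18 cm high), or at 2 leaves for barnyardgrass in flooded paddy, plants stayed in the greenhouse for 12 to 14 days. Damage was then judged visually relative to control plants, with 100 indicating complete control.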

[11] = 500 g ai/ha, visual rating 0-100, 0 no effect, 100 complete control
[12] = 125 g ai/ha, 0 to 100 scale, 0 is no effect, 100 is complete control
[13] = 62 g ai/ha, scale 0 to 100 (0 no effect, 100 complete control)
[14] = 125 g ai/ha, scale 0 to 100 (0 no effect, 100 complete control)
[15] = 250 g ai/ha, scale of 0 to 100, 0 is no effect, 100 is complete control
[16] = 500 g ai/ha, visual rating after 12 to 14 days, scale 0 to 100 (0 no effect, 100 complete control)

Structure (SMILES): C#CCN(C)C(=O)c1ccnc(NC(=O)c2cc(C(C)(C)C)nn2CC)c1 [Compound 160]
- Plant response rating, Barnyardgrass (barnyardgrass [1]; [11]): 100
- Barnyardgrass plant response rating (barnyardgrass [1]; 125 g ai/ha): 0
- Barnyardgrass plant response rating (barnyardgrass [1]; 500 g ai/ha): 10
- Plant response rating, Barnyardgrass (barnyardgrass [1]; [12]): 70
- Plant response rating, Surinam Grass (Surinam grass; [11]): 70
- Surinam Grass plant response rating (Surinam grass; 125 g ai/ha): 10
- Surinam Grass plant response rating (Surinam grass; 500 g ai/ha): 10
- Plant response rating, Surinam Grass (Surinam grass; [12]): 20
- Plant response rating, Cocklebur (cocklebur; [11]): 70
- Cocklebur plant response rating (cocklebur; 125 g ai/ha): 20
- Cocklebur plant response rating (cocklebur; 500 g ai/ha): 90
- Plant response rating, Cocklebur (cocklebur; [12]): 40
- Plant response rating, Corn (corn; [11]): 20
- Corn plant response rating (corn; 125 g ai/ha): 0
- Corn plant response rating (corn; 500 g ai/ha): 0
- Plant response rating, Corn (corn; [12]): 0
- Plant response rating, Crabgrass, Large (large crabgrass; [11]): 80
- Crabgrass, Large plant response rating (large crabgrass; 125 g ai/ha): 0
- Crabgrass, Large plant response rating (large crabgrass; 500 g ai/ha): 0
- Plant response rating, Crabgrass, Large (large crabgrass; [12]): 20
- Plant response rating, Foxtail, Giant (giant foxtail; [11]): 70
- Foxtail, Giant plant response rating (giant foxtail; 125 g ai/ha): 30
- Foxtail, Giant plant response rating (giant foxtail; 500 g ai/ha): 30
- Plant response rating, Foxtail, Giant (giant foxtail; [12]): 10
- Plant response rating, Lambsquarters (lambsquarters; [11]): 100
- Lambsquarters plant response rating (lambsquarters; 125 g ai/ha): 70
- Lambsquarters plant response rating (lambsquarters; 500 g ai/ha): 80
- Plant response rating, Lambsquarters (lambsquarters; [12]): 100
- Plant response rating, Morningglory (morningglory; [11]): 90
- Morningglory plant response rating (morningglory; 125 g ai/ha): 0
- Morningglory plant response rating (morningglory; 500 g ai/ha): 70
- Plant response rating, Morningglory (morningglory; [12]): 20
- Plant response rating, Pigweed (pigweed; [11]): 100
- Pigweed plant response rating (pigweed; 125 g ai/ha): 40
- Pigweed plant response rating (pigweed; 500 g ai/ha): 80
- Plant response rating, Pigweed (pigweed; [12]): 100
- Plant response rating, Rice (rice [2]): 80
- Plant response rating, Velvetleaf (velvetleaf; [11]): 80
- Velvetleaf plant response rating (velvetleaf; 125 g ai/ha): 70
- Velvetleaf plant response rating (velvetleaf; 500 g ai/ha): 70
- Plant response rating, Velvetleaf (velvetleaf; [12]): 60
- Blackgrass plant response rating (blackgrass): 50
- Wheat plant response rating (wheat): 10
- Oat, Wild plant response rating (wild oat; 125 g ai/ha): 10
- Oat, Wild plant response rating (wild oat; 500 g ai/ha): 30
- Rice plant response rating (rice [3]): 90
- Sedge, Umbrella plant response rating [4]: 80
- Ducksalad plant response rating (ducksalad [5]): 90
- Barnyardgrass plant response rating (barnyardgrass [6]): 70
- Rice plant response rating (rice [7]; [13]): 60
- Rice plant response rating (rice [7]; [14]): 70
- Rice plant response rating (rice [7]; [15]): 75
- Plant response rating, Rice (rice [7]; [16]): 95
- Sedge, Umbrella plant response rating [8, 13]: 50
- Sedge, Umbrella plant response rating [8, 14]: 70
- Sedge, Umbrella plant response rating [8, 15]: 80
- Plant response rating, Sedge, Umbrella [8, 16]: 85
- Ducksalad plant response rating (ducksalad [9]; [13]): 75
- Ducksalad plant response rating (ducksalad [9]; [14]): 85
- Ducksalad plant response rating (ducksalad [9]; [15]): 90
- Plant response rating, Ducksalad (ducksalad [9]; [16]): 90
- Barnyardgrass plant response rating (barnyardgrass [10]; [13]): 20
- Barnyardgrass plant response rating (barnyardgrass [10]; 125 g ai/ha, scale of 0 to 100, 0 is no effect, 100 is complete control): 60
- Barnyardgrass plant response rating (barnyardgrass [10]; [15]): 70
- Plant response rating, Barnyardgrass (barnyardgrass [10]; [16]): 85
